Assays:
Format in all cases: in vivo, human
[1] = tested on: serum parathyroid hormone (PTH); assay: Phase 1B Dose-Finding Study in Postmenopausal Women: serum PTH in subjects with >60 pg/ml serum PTH at baseline; settings: after 28 days
Description: (§1) Reference is made to Zella et al., “Novel, Selective Vitamin D Analog Suppresses Parathyroid Hormone in Uremic Animals and Postmenopausal Women, Am J. Nephrology 2014; 39:476-483, May 17, 2014, the content of which is incorporated herein by reference in its entirety. Zella et al. discloses the results from a Phase 1B Dose-Finding Study in Postmenopausal Women in which the participants were administered various doses of 2MD and afterwards, serum parathyroid hormone (PTH) levels and serum calcium levels were monitored. In Zella et al.'s study, post-menopausal women were treated orally once daily with 2MD, calcitriol, or placebo for 28 days. Serum samples for PTH analysis were collected at baseline and 2, 7, 14, and 28 days after the first dose was administered.
In FIG. 1 of the present application, the results from the Phase 1B Dose-Finding Study in Postmenopausal Women from Zella et al. were plotted using only data from subjects that would be classified as having primary hyperparathyroidism or on a watch list for having primary hyperparathyroidism (i.e., subjects having >60 pg/ml serum PTH at baseline). In FIG. 1, the number of subjects administered each dose of 2MD, calcitriol, or placebo, consisted of the following: 0.05 μg 2MD-2 subjects, 0.11 μg 2MD-3 subjects; 0.17 μg 2MD-4 subjects; 0.44 μg 2MD-2 subjects; 0.5 μg calcitriol-1 subject; and placebo-1 subject. As indicated, PTH levels in the subjects administered 2MD at: doses of 0.11 μg, 0.17 μg, and 0.4 μg decreased over time at a level corresponding, to the dose of 2MD. After 28 days, a dose of 2MD of 0.11 μg, 0.17 μg, and. […] (See FIG. 2 and FIG. 3). In summary, 2MD could be administered orally at a daily dose of 0.11 μg-0.44 μg to treat subjects having primary hyperparathyroidism or at risk, for developing primary hyperparathyroidism.

[2] = Phase 1B Dose-Finding Study in Postmenopausal Women: serum calcium levels; settings: baseline vs 28 days, orally once daily, subjects with >60 pg/ml serum PTH at baseline
Description: as §1
(§2) In FIG. 1 of the present application, the results from the Phase 1B Dose-Finding Study in Postmenopausal Women from Zella et al. were plotted using only data from subjects that would be classified as having primary hyperparathyroidism or on a watch list for having primary hyperparathyroidism (i.e., subjects having >60 pg/ml serum PTH at baseline). In FIG. 1, the number of subjects administered each dose of 2MD, calcitriol, or placebo, consisted of the following: 0.05 μg 2MD-2 subjects, 0.11 μg 2MD-3 subjects; 0.17 μg 2MD-4 subjects; 0.44 μg 2MD-2 subjects; 0.5 μg calcitriol-1 subject; and placebo-1 subject. […]

[3] = Phase 1B Dose-Finding Study in Postmenopausal Women: serum phosphate levels; settings: baseline vs 28 days, orally once daily, subjects with >60 pg/ml serum PTH at baseline
Description: as §1, §2

Row | rise in serum calcium levels [2] | Structure (SMILES) | increase in PTH ([1]; 0.05 μg orally once daily) [%] | decrease in PTH ([1]; 0.11 μg orally once daily) [%] | decrease in PTH ([1]; 0.17 μg orally once daily) [%] | decrease in PTH ([1]; 0.4 μg orally once daily) [%] | rise in serum phosphate levels [3] | increase in PTH ([1]; 0.5 μg orally once daily) [%]
1 | without increasing serum calcium | C=C1[C@H](O)CC(=C/C=C2\CCC[C@@]3(C)C2CCC3[C@@H](C)CCCC(C)(C)O)C[C@H]1O (stereo partly drawn) [2MD, 2-methylene-19-nor-(20S)-1α,25-dihydroxyvitamin D3] | 16 | −7 | −31 | −44 | without increasing serum calcium or serum phosphate | –
2 | – | C=C1/C(=C\C=C2/CCC[C@]3(C)[C@@H]([C@H](C)CCCC(C)(C)O)CC[C@@H]23)C[C@@H](O)C[C@@H]1O [calcitriol, reference compound] | – | – | – | – | – | 15

— US10369161B2, “Use of 2-methylene-19-NOR-(20S)-1-alpha,25-dihydroxyvitamin D3 to treat primary hyperparathyroidism” (Wisconsin Alumni Research Foundation, priority 2014, dated 2019)
